The source of these data is patent publication US10245249B2, “Pharmaceutical compositions comprising nitroxyl donors” (Cardioxyl Pharmaceuticals, Inc., priority 2013, dated 2019).

In one data set the test system is heart failure canines. Briefly: Hemodynamic efficacy in heart failure canines (tachycardia-pacing model). In kind it is in vivo, beagle dogs. The settings on record: for hemodynamic activity compared with CXL-1020: both normal and failing canine models, FIG. 1; for ESP / ESPVR / HR / PRSW / SW / Tau / EDV: heart failure canines, i.v. infusion; for ESP / ESPVR / HR / PRSW / SW / Tau: Dose Rate (μmol/kg/min): CXL-1020 100, (1) 75, (2) 100, (83) 65, (84) 77; for EDV: Dose Rate : CXL-1020 100, (1) 75, (2) 100, (83) 65, (84) 77. The procedure:
The cardiovascular effects of nitroxyl donors were examined by means of pressure-volume (PV) curve (loops) analysis in conscious, sling-restrained beagle dogs. Animals were allowed free access to drinking water and a commercial canine diet under standard laboratory conditions. Fluorescent lighting was provided via an automatic timer for approximately 12 hours per day. On occasion, the dark cycle was interrupted intermittently due to study-related activities. Temperature and humidity were monitored and recorded daily and maintained to the maximum extent possible between 64° F. and 84° F. and 30% to 70%, respectively. The dogs were acclimated for a period of at least 1 week prior to surgery. Following surgery and recovery the animals were acclimated to sling restraint for a period up to 4.5 hours. Animals were fasted overnight prior to surgery. An indwelling venous catheter was placed in peripheral vein (e.g., cephalic) for administration of anesthetic. General anesthesia was induced intravenously (bolus) with buprenorphine (about 0.015 mg/kg) followed by an intravenous bolus of propofol (about 6 mg/kg). Additionally, a prophylactic antibiotic (cefazolin 20 to 50 mg/kg via i.v.) was given upon induction. […] Anesthesia was maintained with inhaled isoflurane (1% to 3%). Once a stable (surgical) plane of anesthesia had been established, a left-thoracotomy was performed (under strict aseptic conditions) and each animal was chronically instrumented with sono-micrometry crystals providing left-ventricular (LV) dimensions/volume. Additionally, a fluid-filled catheter and a solid-state monometer were placed in the left ventricle for pressure monitoring. A fluid-filled catheters was placed in the right ventricle (RV) and the aorta (Ao) for pressure monitoring/test article administration. […] The catheters/wires were aseptically tunneled and externalized between the scapulae. Over the course of the study, fluid-filled catheters were regularly (at least once weekly) flushed with a locking-solution in order to prevent both clotting and bacterial growth (2-3 mL of Taurolidine-Citrate solution, TCS-04; Access Technologies). Following the cardiovascular instrumentation, the right jugular vein was carefully exposed and cannulated with a bipolar pacing lead/catheter ([…]® Novus; Medtronic). Under fluoroscopic guidance, this pacing lead was advanced normograde into the right ventricle and actively affixed (screwed in) to the apical endocardium. The proximal end of the lead was secured to the pacing device (Kappa 900; Medtronic). Subsequently, the pacemaker was placed/secured in a subcutaneous pocket in the neck. Considering that the heart was exposed via a thoracotomy, a bipolar pacing wire was secured in the right ventricular mid-myocardium. This pacing lead was tunneled/externalized between the scapulae, and used in conjunction with an external impulse generator/pacemaker. The implanted endocardial pacemaker was used as a back-up to the external/epicardial pacemaker. Prior to closure of the chest from the thoracotomy, a chest tube was placed for drainage of any fluid and/or gas that accumulated from the surgical procedure. The tube was aspirated twice daily until the amount of fluid removed was less than 35 mL per aspiration in an approximately 24 hour period. The chest tube was then removed. All animals were administered a prophylactic antibiotic (cefazolin 20 to 50 mg/kg via i.v.) and pain medication (meloxicam at about 0.2 mg/kg via i.v.). If necessary, an additional analgesic was also administered which included a fentanyl patch (25 to 50 mcg/hour). All surgical incisions were closed in layers; the underlying musculature was closed with absorbable sutures and the skin was closed with staples. Following surgery, the animals were allowed to recover for at least 14 days. Cephalexin (20 to 50 mg/kg) was administered orally BID for at least 7 days and meloxicam (0.1 mg/kg) was administered SID orally or subcutaneously for at least 2 days after surgery. […]

In a further data set the test system is beagle dogs. The experiment in a line: Canine peripheral vein toxicity model, 24 hour infusion (clinical pathology markers of inflammation: WBC, fibrinogen, CRP). The settings on record: for NOAEL (μg/kg/min) (actual): based on clinical pathology markers (WBC, fibrinogen, CRP), 24 hour infusion, CAPTISOL 7% w/v, pH 4. Type of data set: in vivo. The procedure: Key inflammatory markers measured include white blood cells (WBC), fibrinogen, and C-reactive protein (CRP).
After 24 hours of infusion, clinical pathology changes similar to those observed in previous studies using an implanted central catheter were detected.
Studies were conducted in male and female beagle dogs. Animals were allowed free access to drinking water and a commercial canine diet under standard laboratory conditions. Animals were fasted prior to blood sample collections when indicated by the study protocol. Fluorescent lighting was provided via an automatic timer for approximately 12 hours per day. On occasion, the dark cycle was interrupted intermittently due to study-related activities. Temperature and humidity were monitored and recorded daily and maintained to the maximum extent possible between 64° F. to 84° F. and 30% to 70%, respectively. The dogs were acclimated for a period of at least 1 week. During this period, the animals were weighed weekly and observed with respect to general health and any signs of disease. The animals were acclimated to wearing a jacket for at least three days prior to dose administration. Additionally, the animals were also acclimated to wearing an Elizabethan collar (e-collar) during the jacket acclimation.
Animals were catheterized the day prior to dose administration. A percutaneous catheter was placed (using aseptic technique and sterile bandaging) in the cephalic vein distal to the elbow. The animals were free-moving in their cages during continuous infusion dose administration. To facilitate continuous infusion dose administration, the peripheral catheter was attached to an extension set routed underneath a canine jacket and then attached to a tether infusion system. To prevent the animals from accessing/removing the peripherally placed percutaneous catheter, the catheterization site was bandaged using Vet Wrap and an e-collar was placed on the animals for the duration of the treatment (i.e., the catheterized period). During the pretreatment period, the venous catheter was infused continuously at a rate of approximately 2-4 mL/hr with 0.9% sodium chloride for injection, USP (saline) to maintain catheter patency. Prior to dosing, the infusion system was pre-filled (slow bolus infusion) with the respective dosing solution to ensure that dosing began as soon as the infusion pump was started. The infusion line was connected to a reservoir containing the control or test compound and the infusion was started. Test compositions were infused continuously, at a predetermined constant infusion rate (1 or 2 mL/kg/hr), for 24 hours and were compared at molar equivalent dose rates.
A detailed clinical examination of each animal was performed twice daily and body temperature measurements and blood samples for clinical pathology were collected from all animals pre-dose and 6 hours, 12 hours, 24 hours and 72 hours post start of composition infusion. At the termination of the study, all animals were euthanized at their scheduled necropsy and complete necropsy examinations were performed. Selected tissues were collected, fixed and stored for potential future microscopic examination. The cephalic vein containing the infusion catheter was dissected intact along with the brachial vein and examined along its entire length. The location of the catheter tip was marked on the unfixed specimen. After fixation, the specimen was trimmed and processed to slide to provide transverse histologic sections representing the catheter tip and surrounding tissues both proximal and distal to the catheter tip (i.e., 1 cm distal to the catheter tip, at the catheter tip, and 1, 5, 10, 15, and 20 cm proximal to the catheter tip). Relative to the catheter tip, “proximal” was defined as closer to the heart and “distal” was defined as further from the heart.
Each compound was formulated with CAPTISOL® (7% w/v) in sterile water at a pH of 4. […]

For `O=S(=O)(NO)c1ccco1` [Compound 83, N-Hydroxyfuran-2-sulfonamide], in the data set with heart failure canines, the “hemodynamic activity compared with CXL-1020” value is on record as “comparable hemodynamic activity to CXL-1020”, the ESP is −18.52 ± 2.59 % Change from Baseline, the ESPVR turned out to be 38.06 ± 8.79 % Change from Baseline and the HR was 0.05 ± 1.25 % Change from Baseline. Also, in the data set on heart failure canines, the PRSW was 14.90 ± 2.27 % Change from Baseline, the SW was −9.63 ± 1.70 % Change from Baseline, the Tau is recorded as −18.32 ± 3.06 % Change from Baseline and the EDV is −4.91 ± 0.57 % Change from Baseline. The “NOAEL (μg/kg/min) (actual)” value in the data set on beagle dogs amounted to 3 µg/kg/min. In addition, the “NOAEL compared with CXL-1020” value with beagle dogs (clinical pathology markers) is “significantly higher than that of CXL-1020”.

Take `Cc1ccc(S(=O)(=O)NO)o1` [Compound 1, N-Hydroxy-5-methylfuran-2-sulfonamide]: in the data set with heart failure canines, the “hemodynamic activity compared with CXL-1020” value is reported as “comparable hemodynamic activity to CXL-1020”, the ESP was −17 ± 1 % Change from Baseline, the ESPVR came to 29 ± 1 % Change from Baseline and the HR is recorded as −6 ± 2 % Change from Baseline. Moreover, in the data set on heart failure canines, the PRSW came out at 22 ± 1 % Change from Baseline, the SW was 10 ± 5 % Change from Baseline, the Tau was −16 ± 4 % Change from Baseline and the EDV is −9 ± 2 % Change from Baseline. The “improvement relative to CXL-1020” value in the data set on beagle dogs (NOAEL, clinical pathology markers) was “greater than 660 fold”. In the data set with beagle dogs, the “NOAEL (μg/kg/min) (actual)” value was >20 µg/kg/min. Moreover, the “NOAEL compared with CXL-1020” value with beagle dogs (clinical pathology markers) was “significantly higher than that of CXL-1020”.

With `Cc1ccc(S(=O)(=O)NO)s1` [Compound 84, N-Hydroxy-5-methylthiophene-2-sulfonamide], in the data set with heart failure canines, the “hemodynamic activity compared with CXL-1020” value is on record as “comparable hemodynamic activity to CXL-1020”, the ESP was −13.72 ± 2.83 % Change from Baseline, the ESPVR is listed as 51.01 ± 5.85 % Change from Baseline and the HR came to 3.72 ± 2.45 % Change from Baseline. In the data set on heart failure canines, the PRSW is reported as 25.03 ± 2.52 % Change from Baseline, the SW is listed as −5.96 ± 1.58 % Change from Baseline, the Tau was found to be 15.61 ± 1.58 % Change from Baseline and the EDV is on record as −13.43 ± 4.63 % Change from Baseline. Moreover, the “NOAEL (μg/kg/min) (actual)” value in the data set with beagle dogs turned out to be 10 µg/kg/min. Besides, the “NOAEL compared with CXL-1020” value in the data set with beagle dogs (clinical pathology markers) is given as “significantly higher than that of CXL-1020”.

As to `Cn1ccc(S(=O)(=O)NO)n1` [Compound 85, N-Hydroxy-1-methyl-1H-pyrazole-3-sulfonamide], in the data set with heart failure canines, the “hemodynamic activity compared with CXL-1020” value is reported as “comparable hemodynamic activity to CXL-1020”. Moreover, the “NOAEL (μg/kg/min) (actual)” value in the data set with beagle dogs is 3 µg/kg/min. Moreover, in the data set with beagle dogs (clinical pathology markers), the “NOAEL compared with CXL-1020” value is on record as “significantly higher than that of CXL-1020”.

Turning to `CS(=O)(=O)c1cccc(S(=O)(=O)NO)c1` [Compound 2, N-Hydroxy-3-methanesulfonylbenzene-1-sulfonamide], in the data set with heart failure canines, the “hemodynamic activity compared with CXL-1020” value is “comparable hemodynamic activity to CXL-1020”, the ESP is listed as −13.83 ± 3.30 % Change from Baseline, the ESPVR worked out at 22.84 ± 5.69 % Change from Baseline and the HR is on record as −1.36 ± 2.06 % Change from Baseline. In the data set with heart failure canines, the PRSW is 17.91 ± 1.47 % Change from Baseline, the SW is recorded as −9.41 ± 2.84 % Change from Baseline, the Tau is on record as −12.51 ± 2.72 % Change from Baseline and the EDV is −3.26 ± 1.05 % Change from Baseline. The “NOAEL (μg/kg/min) (actual)” value in the data set on beagle dogs came to 3 µg/kg/min. The “NOAEL compared with CXL-1020” value in the data set with beagle dogs (clinical pathology markers) is “significantly higher than that of CXL-1020”.

Turning to `CS(=O)(=O)c1ccccc1S(=O)(=O)NO` [CXL-1020, N-hydroxy-2-methanesulfonylbenzene-1-sulfonamide, reference compound], in the data set with heart failure canines, the ESP is −14.78 ± 3.24 % Change from Baseline, the ESPVR turned out to be 45.42 ± 16.48 % Change from Baseline, the HR is −0.23 ± 2.25 % Change from Baseline and the PRSW amounted to 21.97 ± 3.79 % Change from Baseline. Besides, in the data set with heart failure canines, the SW is −12.01 ± 4.24 % Change from Baseline, the Tau is −17.27 ± 1.39 % Change from Baseline and the EDV is −12.03 ± 3.72 % Change from Baseline. For the same molecule, the “finding in upper forelimb downstream from catheter tip” value in the data set with beagle dogs (after 6 hours of infusion, percutaneous catheter in cephalic vein, dogs) was “significant edema”. In addition, in the data set on beagle dogs (after 24 hours of infusion, percutaneous catheter in cephalic vein, dogs), the “microscopic pathology at the catheter tip” value is listed as “severe thrombophlebitis”. For the same molecule, the “NOAEL (μg/kg/min) (actual)” value in the data set on beagle dogs was <0.03 µg/kg/min.
